According to ChEMBL document CHEMBL4507265 (2021):

What was measured:
[1] = target: Myosin-IIIb (Homo sapiens) (UniProt Q8WXR4); settings: Compound concentration 1000.0 nM
[2] = system: Phosphatidylinositol 4,5-bisphosphate 3-kinase catalytic subunit alpha isoform (Homo sapiens), P42336 [H1047Y]; settings: Compound concentration 1000.0 nM
[3] = target: Serine/threonine-protein kinase SIK1 (Homo sapiens) (UniProt P57059); settings: Compound concentration 1000.0 nM
[4] = target: Alpha-2C adrenergic receptor (Homo sapiens) (UniProt P18825); settings: Compound concentration 10.0 uM
[5] = target: Platelet-derived growth factor receptor alpha (Homo sapiens) (UniProt P16234); settings: Compound concentration 1000.0 nM
[6] = target: Serine/threonine-protein kinase PLK4 (Homo sapiens) (UniProt O00444); settings: Compound concentration 1000.0 nM
Serine/threonine-protein kinase PLK4 (Homo sapiens), sequence (O00444 whole entry): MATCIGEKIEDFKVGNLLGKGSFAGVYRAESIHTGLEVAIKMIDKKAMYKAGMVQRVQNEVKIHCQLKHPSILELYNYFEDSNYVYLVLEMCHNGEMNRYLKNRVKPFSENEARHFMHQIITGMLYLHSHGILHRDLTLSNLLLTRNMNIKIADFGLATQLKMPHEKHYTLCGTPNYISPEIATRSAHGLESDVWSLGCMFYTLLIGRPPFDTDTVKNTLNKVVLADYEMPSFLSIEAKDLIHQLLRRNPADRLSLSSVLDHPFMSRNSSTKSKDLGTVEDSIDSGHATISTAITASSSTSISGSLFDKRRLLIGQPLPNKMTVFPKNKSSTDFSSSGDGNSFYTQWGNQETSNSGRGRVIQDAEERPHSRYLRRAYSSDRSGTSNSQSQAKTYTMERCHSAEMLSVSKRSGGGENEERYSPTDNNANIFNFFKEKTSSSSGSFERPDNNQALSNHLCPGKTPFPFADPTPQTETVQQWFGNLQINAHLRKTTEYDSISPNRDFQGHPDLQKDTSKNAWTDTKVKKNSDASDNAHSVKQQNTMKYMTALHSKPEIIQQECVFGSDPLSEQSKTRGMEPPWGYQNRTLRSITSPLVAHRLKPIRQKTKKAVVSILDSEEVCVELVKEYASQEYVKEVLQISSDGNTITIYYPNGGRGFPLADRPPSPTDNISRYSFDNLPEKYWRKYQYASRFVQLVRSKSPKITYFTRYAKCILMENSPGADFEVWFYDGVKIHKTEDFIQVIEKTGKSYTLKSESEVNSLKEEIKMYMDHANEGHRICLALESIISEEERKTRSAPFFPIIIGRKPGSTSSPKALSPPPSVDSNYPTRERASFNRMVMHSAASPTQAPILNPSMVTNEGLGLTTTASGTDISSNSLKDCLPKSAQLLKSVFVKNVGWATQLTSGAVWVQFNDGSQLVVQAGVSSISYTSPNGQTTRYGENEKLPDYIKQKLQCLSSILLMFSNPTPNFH

[7] = target: Eukaryotic translation initiation factor 2-alpha kinase 1 (Homo sapiens) (UniProt Q9BQI3); settings: Compound concentration 1000.0 nM
[8] = target: Interleukin-1 receptor-associated kinase 1 (Homo sapiens) (UniProt P51617); settings: Compound concentration 1000.0 nM
[9] = target: Insulin receptor (Homo sapiens) (UniProt P06213); settings: Compound concentration 1000.0 nM
Rattus norvegicus = species: Rattus norvegicus; settings: Compound concentration 10.0 uM
[10] = target: Macrophage-stimulating protein receptor (Homo sapiens) (UniProt Q04912); settings: Compound concentration 1000.0 nM
[11] = target: Muscle, skeletal receptor tyrosine-protein kinase (Homo sapiens) (UniProt O15146); settings: Compound concentration 1000.0 nM
[12] = target: Sigma intracellular receptor 2 (Homo sapiens, UniProt Q5BJF2); settings: Compound concentration 10.0 uM
[13] = target: MAP/microtubule affinity-regulating kinase 3 (Homo sapiens) (UniProt P27448); settings: Compound concentration 1000.0 nM
[14] = target: Serine/threonine-protein kinase D1 (Homo sapiens) (UniProt Q15139); settings: Compound concentration 1000.0 nM
[15] = target: Serine/threonine-protein kinase PAK 6 (Homo sapiens) (UniProt Q9NQU5); settings: Compound concentration 1000.0 nM
[16] = target: Receptor tyrosine-protein kinase erbB-2 (Homo sapiens) (UniProt P04626); settings: Compound concentration 1000.0 nM
[17] = target: Leukocyte tyrosine kinase receptor (Homo sapiens) (UniProt P29376); settings: Compound concentration 1000.0 nM
Leukocyte tyrosine kinase receptor (Homo sapiens), sequence (P29376 whole entry): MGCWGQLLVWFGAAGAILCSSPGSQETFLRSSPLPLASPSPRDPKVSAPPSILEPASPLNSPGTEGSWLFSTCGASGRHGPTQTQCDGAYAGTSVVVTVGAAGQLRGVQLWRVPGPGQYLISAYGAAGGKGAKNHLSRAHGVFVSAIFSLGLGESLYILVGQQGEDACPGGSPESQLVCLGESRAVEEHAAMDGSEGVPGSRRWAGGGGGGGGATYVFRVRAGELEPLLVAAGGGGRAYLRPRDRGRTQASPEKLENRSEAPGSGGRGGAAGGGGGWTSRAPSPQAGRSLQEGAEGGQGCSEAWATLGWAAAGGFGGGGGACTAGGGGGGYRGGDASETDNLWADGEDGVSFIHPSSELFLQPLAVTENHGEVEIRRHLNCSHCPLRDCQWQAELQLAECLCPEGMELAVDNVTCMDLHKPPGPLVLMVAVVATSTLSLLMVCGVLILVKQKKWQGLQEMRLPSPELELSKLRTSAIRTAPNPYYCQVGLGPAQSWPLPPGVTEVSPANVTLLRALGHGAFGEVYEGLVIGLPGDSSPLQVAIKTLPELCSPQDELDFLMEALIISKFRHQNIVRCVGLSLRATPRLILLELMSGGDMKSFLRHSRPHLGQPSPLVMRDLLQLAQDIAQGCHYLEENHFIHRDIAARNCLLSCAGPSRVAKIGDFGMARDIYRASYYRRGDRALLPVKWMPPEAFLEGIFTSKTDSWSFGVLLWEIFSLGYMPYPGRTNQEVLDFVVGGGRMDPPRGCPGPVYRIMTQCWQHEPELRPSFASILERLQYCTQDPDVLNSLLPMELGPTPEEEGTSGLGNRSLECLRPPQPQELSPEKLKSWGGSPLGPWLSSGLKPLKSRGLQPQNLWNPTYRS

[18] = target: Muscarinic acetylcholine receptor M4 (Homo sapiens) (UniProt P08173); settings: Compound concentration 10.0 uM
[19] = target: Serine/threonine-protein kinase 17B (Homo sapiens) (UniProt O94768); settings: Compound concentration 1000.0 nM
Serine/threonine-protein kinase 17B (Homo sapiens), sequence (O94768 whole entry): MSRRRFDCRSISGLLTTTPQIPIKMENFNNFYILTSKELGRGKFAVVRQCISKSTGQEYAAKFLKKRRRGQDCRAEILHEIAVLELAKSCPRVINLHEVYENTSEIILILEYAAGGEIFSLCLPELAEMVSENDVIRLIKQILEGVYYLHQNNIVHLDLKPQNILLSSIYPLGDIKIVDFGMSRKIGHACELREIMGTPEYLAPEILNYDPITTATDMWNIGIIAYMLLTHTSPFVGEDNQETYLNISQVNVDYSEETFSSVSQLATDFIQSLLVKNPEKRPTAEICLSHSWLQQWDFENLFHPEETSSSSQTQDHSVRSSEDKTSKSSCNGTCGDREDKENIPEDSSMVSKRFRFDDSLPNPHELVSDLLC

[20] = target: Serine/threonine-protein kinase 24 (Homo sapiens) (UniProt Q9Y6E0); settings: Compound concentration 1000.0 nM
[21] = target: Mitogen-activated protein kinase kinase kinase 3 (Homo sapiens) (UniProt Q99759); settings: Compound concentration 1000.0 nM
[22] = system: Receptor-type tyrosine-protein kinase FLT3 (Homo sapiens), P36888 [D835H]; settings: Compound concentration 1000.0 nM
[23] = target: Mitogen-activated protein kinase kinase kinase 13 (Homo sapiens) (UniProt O43283); settings: Compound concentration 1000.0 nM
[24] = target: Mu-type opioid receptor (Homo sapiens) (UniProt P35372); settings: Compound concentration 10.0 uM
[25] = target: Serine/threonine-protein kinase WNK3 (Homo sapiens) (UniProt Q9BYP7); settings: Compound concentration 1000.0 nM
Serine/threonine-protein kinase WNK3 (Homo sapiens), sequence (Q9BYP7 whole entry): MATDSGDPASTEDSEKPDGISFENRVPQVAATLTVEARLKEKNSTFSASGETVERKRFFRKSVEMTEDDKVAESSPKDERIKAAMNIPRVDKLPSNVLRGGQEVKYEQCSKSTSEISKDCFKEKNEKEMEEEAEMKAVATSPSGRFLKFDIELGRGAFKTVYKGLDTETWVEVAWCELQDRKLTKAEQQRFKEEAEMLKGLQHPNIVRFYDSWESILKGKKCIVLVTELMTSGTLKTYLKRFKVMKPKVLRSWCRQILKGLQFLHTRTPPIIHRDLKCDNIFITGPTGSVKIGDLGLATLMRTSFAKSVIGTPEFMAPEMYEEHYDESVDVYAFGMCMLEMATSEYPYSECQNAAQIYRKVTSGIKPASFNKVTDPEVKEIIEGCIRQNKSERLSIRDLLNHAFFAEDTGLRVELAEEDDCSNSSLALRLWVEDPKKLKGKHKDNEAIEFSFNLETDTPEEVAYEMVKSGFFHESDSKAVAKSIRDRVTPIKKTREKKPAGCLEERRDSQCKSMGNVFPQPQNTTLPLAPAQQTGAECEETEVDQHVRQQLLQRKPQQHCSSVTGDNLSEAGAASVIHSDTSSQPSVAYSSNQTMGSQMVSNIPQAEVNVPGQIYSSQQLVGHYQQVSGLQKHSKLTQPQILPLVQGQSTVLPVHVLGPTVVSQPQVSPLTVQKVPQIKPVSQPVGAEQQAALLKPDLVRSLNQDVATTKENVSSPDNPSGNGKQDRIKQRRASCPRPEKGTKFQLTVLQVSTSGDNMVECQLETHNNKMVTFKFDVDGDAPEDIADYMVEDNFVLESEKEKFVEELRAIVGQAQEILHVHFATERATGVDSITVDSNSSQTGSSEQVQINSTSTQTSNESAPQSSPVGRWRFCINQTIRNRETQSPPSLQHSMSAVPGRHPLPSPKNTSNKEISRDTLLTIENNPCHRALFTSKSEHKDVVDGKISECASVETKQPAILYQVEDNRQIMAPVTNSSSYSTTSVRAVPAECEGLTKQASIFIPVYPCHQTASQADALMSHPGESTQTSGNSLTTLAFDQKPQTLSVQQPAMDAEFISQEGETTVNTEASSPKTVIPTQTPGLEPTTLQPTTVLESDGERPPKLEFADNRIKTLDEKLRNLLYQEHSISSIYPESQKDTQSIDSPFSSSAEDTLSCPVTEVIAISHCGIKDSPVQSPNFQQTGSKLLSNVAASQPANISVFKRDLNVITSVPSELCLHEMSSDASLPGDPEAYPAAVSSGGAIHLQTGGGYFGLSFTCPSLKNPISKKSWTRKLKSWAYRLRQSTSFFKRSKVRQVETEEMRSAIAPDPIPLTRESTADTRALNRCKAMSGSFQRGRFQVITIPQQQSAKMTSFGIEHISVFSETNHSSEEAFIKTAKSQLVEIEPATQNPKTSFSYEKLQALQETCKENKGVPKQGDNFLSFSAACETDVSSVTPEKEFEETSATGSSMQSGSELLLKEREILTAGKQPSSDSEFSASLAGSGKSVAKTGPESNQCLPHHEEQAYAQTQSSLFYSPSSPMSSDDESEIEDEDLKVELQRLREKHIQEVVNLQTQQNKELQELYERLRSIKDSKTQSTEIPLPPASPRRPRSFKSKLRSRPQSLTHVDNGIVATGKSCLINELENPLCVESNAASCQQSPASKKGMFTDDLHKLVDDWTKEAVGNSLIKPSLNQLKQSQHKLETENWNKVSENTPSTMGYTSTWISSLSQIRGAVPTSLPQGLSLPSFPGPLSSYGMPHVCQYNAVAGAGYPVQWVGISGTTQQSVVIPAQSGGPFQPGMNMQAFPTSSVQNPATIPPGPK

[26] = target: NUAK family SNF1-like kinase 2 (Homo sapiens) (UniProt Q9H093); settings: Compound concentration 1000.0 nM
[27] = target: Tyrosine-protein kinase BTK (Homo sapiens) (UniProt Q06187); settings: Compound concentration 1000.0 nM
Tyrosine-protein kinase BTK (Homo sapiens), sequence (Q06187 whole entry): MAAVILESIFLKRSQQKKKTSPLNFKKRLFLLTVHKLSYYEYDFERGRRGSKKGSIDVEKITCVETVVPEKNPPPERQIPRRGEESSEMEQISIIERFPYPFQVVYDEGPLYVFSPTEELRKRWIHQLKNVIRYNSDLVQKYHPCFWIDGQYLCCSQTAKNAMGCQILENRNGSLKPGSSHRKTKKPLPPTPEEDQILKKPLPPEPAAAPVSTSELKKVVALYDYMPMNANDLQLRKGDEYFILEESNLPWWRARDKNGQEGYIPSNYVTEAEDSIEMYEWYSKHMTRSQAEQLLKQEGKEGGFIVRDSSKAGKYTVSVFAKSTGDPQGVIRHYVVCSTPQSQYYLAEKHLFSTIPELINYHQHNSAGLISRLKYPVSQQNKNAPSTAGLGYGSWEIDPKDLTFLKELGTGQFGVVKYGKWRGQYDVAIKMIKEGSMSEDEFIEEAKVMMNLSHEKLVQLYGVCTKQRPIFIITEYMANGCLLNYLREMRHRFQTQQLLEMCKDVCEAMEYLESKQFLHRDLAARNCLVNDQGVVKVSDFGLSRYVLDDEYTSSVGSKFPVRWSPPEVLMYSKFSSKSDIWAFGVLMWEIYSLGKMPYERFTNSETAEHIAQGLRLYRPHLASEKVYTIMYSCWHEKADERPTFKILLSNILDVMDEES

[28] = target: TGF-beta receptor type-2 (Homo sapiens) (UniProt P37173); settings: Compound concentration 1000.0 nM
[29] = target: Tyrosine-protein kinase Lyn (Homo sapiens) (UniProt P07948); settings: Compound concentration 1000.0 nM
[30] = target: Tyrosine-protein kinase JAK1 (Homo sapiens) (UniProt P23458); settings: Compound concentration 1000.0 nM
[31] = target: Serine/threonine-protein kinase Nek7 (Homo sapiens) (UniProt Q8TDX7); settings: Compound concentration 1000.0 nM
[32] = target: T1, Alpha-2A adrenergic receptor (Homo sapiens) (UniProt P08913); settings: Compound concentration 10.0 uM
T1 sequence (whole entry): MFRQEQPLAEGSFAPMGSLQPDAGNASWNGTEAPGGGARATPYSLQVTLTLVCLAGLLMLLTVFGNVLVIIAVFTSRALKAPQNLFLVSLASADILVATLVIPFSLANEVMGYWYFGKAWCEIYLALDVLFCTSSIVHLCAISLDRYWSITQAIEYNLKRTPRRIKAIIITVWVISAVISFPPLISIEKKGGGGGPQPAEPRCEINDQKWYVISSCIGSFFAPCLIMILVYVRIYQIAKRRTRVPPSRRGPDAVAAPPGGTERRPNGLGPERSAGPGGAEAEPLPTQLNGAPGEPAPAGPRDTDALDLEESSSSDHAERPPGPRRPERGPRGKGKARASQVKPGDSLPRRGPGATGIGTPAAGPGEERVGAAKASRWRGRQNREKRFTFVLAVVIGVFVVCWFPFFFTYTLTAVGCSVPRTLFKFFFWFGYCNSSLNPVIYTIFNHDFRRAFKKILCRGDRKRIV

[33] = target: Calcium/calmodulin-dependent protein kinase type II subunit gamma (Homo sapiens) (UniProt Q13555); settings: Compound concentration 1000.0 nM
[34] = target: LIM domain kinase 2 (Homo sapiens) (UniProt P53671); settings: Compound concentration 1000.0 nM
[35] = target: Homeodomain-interacting protein kinase 3 (Homo sapiens) (UniProt Q9H422); settings: Compound concentration 1000.0 nM
[36] = system: Mast/stem cell growth factor receptor Kit (Homo sapiens), P10721 [A829P]; settings: Compound concentration 1000.0 nM
[37] = target: Calcium/calmodulin-dependent protein kinase type 1 (Homo sapiens) (UniProt Q14012); settings: Compound concentration 1000.0 nM
Calcium/calmodulin-dependent protein kinase type 1 (Homo sapiens), sequence (Q14012 whole entry, looked up): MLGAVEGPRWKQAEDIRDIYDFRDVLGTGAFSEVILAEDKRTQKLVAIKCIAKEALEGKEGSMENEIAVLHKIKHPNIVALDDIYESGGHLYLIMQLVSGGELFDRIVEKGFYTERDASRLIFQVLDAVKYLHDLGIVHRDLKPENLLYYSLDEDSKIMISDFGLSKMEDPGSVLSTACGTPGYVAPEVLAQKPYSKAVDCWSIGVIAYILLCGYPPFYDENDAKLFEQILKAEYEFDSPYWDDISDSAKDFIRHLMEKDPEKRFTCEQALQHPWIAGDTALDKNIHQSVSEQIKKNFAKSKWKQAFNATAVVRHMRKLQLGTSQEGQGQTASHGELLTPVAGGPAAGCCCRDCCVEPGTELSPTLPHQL

[38] = target: Rhodopsin kinase GRK1 (Homo sapiens) (UniProt Q15835); settings: Compound concentration 1000.0 nM

## NS(=O)(=O)c1cc(NC(=O)Cc2ccccc2)ccc1Oc1cccc(Cl)c1 [BAY-1797]
[1]
  residual activity: 100%
[2]
  residual activity: 81%
[3]
  residual activity: 93%
[4]
  inhibition: 18.2%
[5]
  residual activity: 80%
[6]
  residual activity: 92%
[7]
  residual activity: 83%
[8]
  residual activity: 73%
[9]
  residual activity: 100%
Rattus norvegicus
  inhibition: 5.06%
[10]
  residual activity: 97%
[11]
  residual activity: 100%
[12]
  inhibition: 59.5%
[13]
  residual activity: 100%
[14]
  residual activity: 96%
[15]
  residual activity: 100%
[16]
  residual activity: 87%
[17]
  residual activity: 87%
[18]
  inhibition: 10.2%
[19]
  residual activity: 100%
[20]
  residual activity: 82%
[21]
  residual activity: 71%
[22]
  residual activity: 98%
[23]
  residual activity: 73%
[24]
  inhibition: 19.3%
[25]
  residual activity: 78%
[26]
  residual activity: 91%
[27]
  residual activity: 76%
[28]
  residual activity: 87%
[29]
  residual activity: 99%
[30]
  residual activity: 99%
[31]
  residual activity: 86%
[32]
  inhibition: 6.31%
[33]
  residual activity: 86%
[34]
  residual activity: 88%
[35]
  residual activity: 84%
[36]
  residual activity: 74%
[37]
  residual activity: 90%
[38]
  residual activity: 83%

## NS(=O)(=O)c1cc(NC(=O)C2(c3ccccc3Cl)CC2)ccc1Oc1cccc(Cl)c1 [BAY-207]
[1]
  residual activity: 29%
[2]
  residual activity: 76%
[3]
  residual activity: 71%
[4]
  inhibition: 89.6%
[5]
  residual activity: 81%
[6]
  residual activity: 87%
[7]
  residual activity: 95%
[8]
  residual activity: 79%
[9]
  residual activity: 100%
Rattus norvegicus
  inhibition: 87.5%
[10]
  residual activity: 99%
[11]
  residual activity: 77%
[12]
  inhibition: 82%
[13]
  residual activity: 92%
[14]
  residual activity: 65%
[15]
  residual activity: 100%
[16]
  residual activity: 49%
[17]
  residual activity: 73%
[18]
  inhibition: -1.95%
[19]
  residual activity: 97%
[20]
  residual activity: 93%
[21]
  residual activity: 100%
[22]
  residual activity: 47%
[23]
  residual activity: 100%
[24]
  inhibition: 40.2%
[25]
  residual activity: 78%
[26]
  residual activity: 80%
[27]
  residual activity: 88%
[28]
  residual activity: 64%
[29]
  residual activity: 83%
[30]
  residual activity: 90%
[31]
  residual activity: 90%
[32]
  inhibition: 40.8%
[33]
  residual activity: 93%
[34]
  residual activity: 82%
[35]
  residual activity: 100%
[36]
  residual activity: 69%
[37]
  residual activity: 100%
[38]
  residual activity: 72%
